One series concerns RERF-LC-MA/LZRNL cell. The experiment in a line: Cellular toxicity in control cell with no insertion of HSV-1 thymidine kinase gene (MTT). It counts as cell-based. The conditions noted are these: Homo sapiens, 96 h, control RERF-LC-MA/LZRNL cell without HSV-1 thymidine kinase gene, 4 days. The method, then:
(§1) The cellular toxicities of the quanine derivative for use in accordance with the invention (the compound in the free form represented by the structural formula 1), ganciclovir and aciclovir (Comparative Example 1 and 1') against HSV-1 thymidine kinase gene-introduced cells were tested.
(§2) Human lung small cell carcinoma-derived RERF-LC-MA cell was infected with a viral vector prepared by inserting the thymidine kinase gene in a vector derived from Molony mouse leukemia virus. The resulting RERF-LC-MA/LTRNL cell was used. Furthermore, RERF-LC-MA/LZRNL cell with no insertion of any HSV-1 thymidine kinase gene was used as a control cell. The method for preparing these cells and the assay of the cellular toxicities were according to the method reported by Hasegawa et al. [see Hasegawa Y. et al., Am. J. Respir. Cell Mol. Biol. 8 (6) (1993) p. 655-661]. Based on the assay method of cellular toxicity, the cellular toxicities were confirmed by a calorimetric assay method using MTT [3-(4,5-dimethylthiazol-2-yl)-2,5-diphenyl-tetrazolium bromide].
The RERF-LC-MA/LTPNL cell suspension was diluted with a culture medium (E-MEM, 10% FBS) and inoculated at 2×10^3 cells/well in a 96-well plate. Then, the pharmaceutical component (guanine derivative) for use in accordance with the invention, ganciclovir and aciclovir were added at various concentrations to these wells. Subsequently, the cellular toxicities were assayed and confirmed by a calorimetric assay […] and using MTT on day 4.

Series [1] has as its system mouse granulocyte macrophage precursor cell (CFU-GM). Kind of series: Effect on the inhibition of the growth of mouse granulocyte macrophage precursor cell (CFU-GM). It counts as cell-based, mouse C57BL/6N Crj. The conditions noted are these: for IC50: CFU-GM, 168 h, mouse femur bone marrow cells, 4×10^4 cells/ml, mouse interleukin-3, 7 days, 37° C., read-out: IC50 (inhibition of CFU-GM colony formation). The method, then:
The effects of the guanine derivative for use in accordance with the invention (the free form of the compound represented by the structural formula 1), ganciclovir and aciclovir (Comparative Examples 2 and 2') on the inhibition of the growth of mouse granulocyte macrophage precursor cell (CFU-GM) were tested. The mouse granulocyte macrophage precursor cell of Okano et al. [see Okano A. et al., Transplantation 48 (1989) p. 495-498]. The effects on the inhibition of the growth of CFU-GM were assayed as follows. From the femur bone marrow of mouse C57BL/6N Crj females of age 10 weeks was prepared bone marrow cell, which was then inoculated at a concentration of 4×10^4 cells/ml in a semi-solid culture medium with addition of various concentrations of the guanine derivative, ganciclovir and aciclovir (Iscove's modified Dulbecco's medium, 0.8% carboxymethyl cellulose, 20% FBS, 200 units/ml mouse interleukin-3). The cell was cultured in 37° C. in 5% CO2 in a wet atmosphere on a 35-mm plate for 7 days. The emerging CFU-GM colonies were counted with a differential microscope.

The conditions of series [2]: background statement; cited from earlier work.
Another series concerns RERF-LC-MA/LTRNL cell. The experiment in a line: Cellular toxicity in HSV-1 thymidine kinase gene-introduced cell (MTT). It counts as cell-based, Human. The conditions noted are these: versus ganciclovir and aciclovir. The procedure: as §1, §2
The RERF-LC-MA/LTPNL cell suspension was diluted with a culture medium (E-MEM, 10% FBS) and inoculated at 2×10^3 cells/well in a 96-well plate. Then, the pharmaceutical component (guanine derivative) for use in accordance with the invention, ganciclovir and aciclovir were added at various concentrations to these wells. […]

These results are taken from US6331528A, “Method for treatment in gene therapy and use of guanine derivative therefor” (priority 2000, dated 2001).

≈ marks a conversion by molar mass, not a printed value.

The IC50 is the concentration at which inhibition is half-maximal. Regarding `Nc1nc(O)c2ncn(COC(CO)CO)c2n1` [ganciclovir], the IC50 in the series with RERF-LC-MA/LZRNL cell was ≥ 201 µg/mL; in series [1], 18 µg/mL (≈ 70.5 µM).

With `Nc1nc2c(ncn2COCCO)c(=O)[nH]1` [aciclovir], the results for the IC50 (with RERF-LC-MA/LZRNL cell; in series [1]) were ≥ 250 µg/mL and 26 µg/mL (≈ 115 µM), respectively. Moreover, in series [2], the therapeutic effect entry is listed as “extremely poor therapeutic effect”.

Take `Nc1nc2c(ncn2C[C@]2(CO)C[C@H]2CO)c(=O)[nH]1` [guanine derivative, (-)-9-[1'S,2'R-bis(hydroxymethyl)cyclopropan-1'-yl]methylguanine]: the IC50 was ≥ 135 µg/mL in the series on RERF-LC-MA/LZRNL cell and ≥ 66 µg/mL in series [1]. In addition, the “bone marrow toxicity compared with ganciclovir and aciclovir” value in series [1] (inferred from CFU-GM colony IC50) is “possibly weaker than those of ganciclovir and aciclovir”. Also, in the series on RERF-LC-MA/LTRNL cell, the “cellular toxicity effect compared with the conventional products” value is “more excellent cellular toxicity effect, compared with the conventional products”.
